Source: US6696486B1, “Medical use for atypical β-adrenoceptor agonists” (Glaxo Group Limited, priority 1992, dated 2004)

Columns and labels:
[1] = system: indomethacin-induced antral damage; assay: indomethacin-induced gastric antral lesions in the re-fed rat (Method 2); assay type: in vivo; conditions: for % Protection: single dose 30 minutes before indomethacin (60 mg/kg s.c.)
Source text: An experimental model in which atypical beta-adrenoceptor agonists may be shown to be of use in the treatment of gastrointestinal disorders is described below as Method 2. The procedure is based upon that described by H. Satoh et. al., Gastroenterology, 81, 719-725 (1981) in which the effect of compounds on indomethacin-induced gastric antral lesions in the re-fed rat is investigated. Indomethacin is an example of the class of compound known as non-steroidal anti-inflammatory drugs (NSAIDs), the use of which is frequently associated with gastrointestinal ulcers.
Food (but not water) is withheld from female random hooded rats (70-120 g) for 24 hours and then the rats are re-fed with Rat and Mouse No. 1 Maintenance Diet. After 1 hour of access to food, the rats are dosed orally with either the test compound or solvent (0.5% w/v methyl cellulose in water). 30 minutes later, indomethacin (60 mg/kg; dissolved in 1% w/v NaHCO3 in saline) is administered as a single subcutaneous injection at the back of the neck. Subsequently, the rats are allowed food, but water is withheld, and the animals are humanely killed by cervical dislocation at 6 hours post dose. Control animals received a single subcutaneous dose of the appropriate solvent.
The rat's stomach is removed (with a small amount of duodenum attached), opened along the greater curvature and the contents removed by washing with 0.9% w/v sodium chloride solution (saline). The opened stomach is pinned out (mucosal surface uppermost) on a polystyrene mat and the area of damage assessed by placing a grid (composed of 1 mm squares) over the antral region. Antral damage appears as discrete black or dark brown ulcers. The total area of antral damage is then expressed as a percentage of the total surface area of the antrum.
The protective effect of the test compound on indomethacin-induced antral damage is calculated as a percentage using the following equation: [formula]

[2] = system: piroxicam-induced antral damage; assay type: in vivo, rat
[3] = system: indomethacin-induced ulceration of the small intestine; assay: indomethacin-induced ulceration of the small intestine in the rat (Method 3); assay type: in vivo; conditions: single dose 30 minutes before indomethacin (15 mg/kg p.o.)
Experimental: Another experimental model in which atypical beta-adrenocopter agonists may be shown to be of use in the treatment of gastrointestinal disorders is described below as Method 3. This is a model of indomethacin-induced ulceration of the small intestine in the rat.
Female random hooded rats (100-150 g) are allowed free access to food and water. The rats are dosed orally with either the test compound (1 ml per 100 g of an appropriated dose) or solvent (0.5% w/v methyl cellulose in water). 30 minutes later, indomethacin (15 mg/kg) is administered orally using a dose volume of 1 ml per 100 g of a 1.5 mg/ml solution of indomethacin in 1% w/v NaHCO3. The animals are humanely killed by cervical dislocation at 48 hours post dose.
The rat's small intestine is removed, opened along its length and the contents removed by washing with 0.9% w/v sodium chloride solution (saline). The opened small intestine is pinned out (mucosal surface uppermost) on a polystyrene mat and the area of damage assessed by placing a grid (composed of 1 mm squares) over the preparation. The number of visible ulcers (appearing as discrete black or brown lesions) running the length of the small intestine is counted. The protective effect of the test compound is calculated as a percentage using the following equation: [formula]

[4] = inhibition of indomethacin-induced antral ulceration in rat
[5] = 0.5 mg/kg p.o., single dose 30 minutes before NSAID

In the case of `C[C@@H](Cc1ccc(OCC(=O)O)cc1)NC[C@H](O)c1cccc(Cl)c1` [(R,S)-N-[2-(4-carboxymethoxyphenyl)-1-methylethyl]-2-hydroxy-2-(3-chlorophenyl)ethanamine], the “Maximum Inhibition (dose; mg/kg p.o.)” value ([1]; dose 3 mg/kg p.o.) is reported as 77% (3) and the ED50 [1, 4] is reported as 0.3 mg/kg p.o.

`COC(=O)COc1ccc(C[C@@H](C)NC[C@@H](O)c2cccc(Cl)c2)cc1` [(S,R)-N-[2-(4-carbomethoxymethoxyphenyl)-1-methylethyl]-2-hydroxy-2-(3-chlorophenyl)ethanamine] was tested, and the “Maximum Inhibition (dose; mg/kg p.o.)” value ([1]; dose 3 mg/kg p.o.) was 88% (3) and the ED50 [1, 4] was 0.5 mg/kg p.o.

For `C[C@H](Cc1ccc2c(c1)OC(C(=O)O)(C(=O)O)O2)NC[C@@H](O)c1cccc(Cl)c1` [(R,S)-5-(2-((2-(3-chlorophenyl)-2-hydroxyethyl)amino)propyl)-1,3-benzodioxole-2,2-dicarboxylic acid], the “Maximum Inhibition (dose; mg/kg p.o.)” value ([1]; dose 1 mg/kg p.o.) was 64% (1) and the ED50 [1, 4] was 0.6 mg/kg p.o.

In the case of `COC(=O)COc1ccc(C[C@@H](C)NC[C@H](O)c2cccc(Cl)c2)cc1` [(R,R)-N-[2-(4-carbomethoxymethoxyphenyl)-1-methylethyl]-2-hydroxy-2-(3-chlorophenyl)ethanamine], the “Maximum Inhibition (dose; mg/kg p.o.)” value ([1]; dose 3 mg/kg p.o.) is reported as 100% (3) and the ED50 [1, 4] is reported as 0.02 mg/kg p.o.

`COc1ccc2c(c1)c(CC(=O)O)c(C)n2C(=O)c1ccc(Cl)cc1` [indomethacin, reference compound] was tested, and the “percentage area of damage (antral)” value ([1]; subcutaneous dose of 60 mg/kg, rat) was 19±5%.

With `COC(=O)COc1ccc(C[C@H](C)NC[C@H](O)c2cccc(Cl)c2)cc1` [(R,S)-N-[2-(4-carbomethoxymethoxyphenyl)-1-methylethyl]-2-hydroxy-2-(3-chlorophenyl)ethanamine] the “Maximum Inhibition (dose; mg/kg p.o.)” value ([1]; dose 3 mg/kg p.o.) was 93% (3) and the ED50 [1, 4] was 0.2 mg/kg p.o.

In the case of `CN1C(C(=O)Nc2ccccn2)=C(O)c2ccccc2S1(=O)=O` [piroxicam, reference compound], the “percentage area of antral damage” value ([2]; female, random hooded, rat, in vivo, sc, 60 mg/kg, 6 h) is reported as 21±3%.

For `C[C@H](Cc1ccc(OCC(=O)O)cc1)NC[C@H](O)c1cccc(Cl)c1` [(R,R)-N-[2-(4-carboxymethoxyphenyl)-1-methylethyl]-2-hydroxy-2-(3-chlorophenyl)ethanamine], the “Maximum Inhibition (dose; mg/kg p.o.)” value ([1]; dose 3 mg/kg p.o.) was 100% (3) and the ED50 [1, 4] was 0.03 mg/kg p.o.

In the case of `C[C@H](Cc1ccc2c(c1)OC(C(=O)O)(C(=O)O)O2)NC[C@H](O)c1cccc(Cl)c1` [CL 316243, (R,R)-5-(2-((2-(3-chlorophenyl)-2-hydroxyethyl)amino)propyl)-1,3-benzodioxole-2,2-dicarboxylic acid], the “% inhibition of indomethacin-induced damage” value [1, 5] is reported as 83%, the “Maximum Inhibition (dose; mg/kg p.o.)” value ([1]; dose 1 mg/kg p.o.) is reported as 96% (1) and the ED50 [1, 4] is reported as 0.03 mg/kg p.o. The “% inhibition of piroxicam-induced damage” value [2, 5] was 96% and the “% inhibition” value ([3]; 10 mg/kg p.o.) was 93 ± 4%.

In the case of `COC(=O)COc1ccc(CC(C)NCC(O)c2cccc(Cl)c2)cc1` (stereo not shown) [BRL 35135, N-[2-(4-carbomethoxymethoxyphenyl)-1-methylethyl]-2-hydroxy-2-(3-chlorophenyl)ethanamine], the “% Protection” value ([1]; 20 μg/kg p.o.) is reported as 40%, the “% Protection” value ([1]; 50 μg/kg p.o.) is reported as 48% and the “% Protection” value ([1]; 100 μg/kg p.o.) is reported as 88%. The “% Protection” value ([1]; 500 μg/kg p.o.) was 97%, the ED50 ([1]; gastro-protection against indomethacin-induced antral damage, rat) was “approximately 50 μg/kg p.o” and the “% inhibition” value ([3]; 0.05 mg/kg p.o.) was 24 ± 15%. For the same molecule, the “% inhibition” value ([3]; 0.1 mg/kg p.o.) was 35 ± 7%, the “% inhibition” value ([3]; 0.5 mg/kg p.o.) was 76 ± 3% and the “% inhibition” value ([3]; 2.5 mg/kg p.o.) was 85 ± 3%. The “% inhibition” value ([3]; 10 mg/kg p.o.) was 80 ± 3%.

In the case of `C[C@@H](Cc1ccc(OCC(=O)O)cc1)NC[C@@H](O)c1cccc(Cl)c1` [(S,S)-N-[2-(4-carboxymethoxyphenyl)-1-methylethyl]-2-hydroxy-2-(3-chlorophenyl)ethanamine], the “Maximum Inhibition (dose; mg/kg p.o.)” value ([1]; dose 3 mg/kg p.o.) is reported as 97% (3) and the ED50 [1, 4] is reported as 0.8 mg/kg p.o.
